Measured values: patent US8685977B2, “Chemical compounds” (Pfizer Limited, priority 2010, dated 2014)

Molecular target: T1, Nav1.7 (or SCN9A) channel (Homo sapiens, UniProt Q15858)
T1 construct: expressed in transfected cells
Assay: Nav1.7 PatchXpress 7000 automated electrophysiology assay (HEK cells stably expressing hSCN9A)
Type: cell-based
Conditions: voltage-clamped at V1/2 of inactivation, read-out: Nav1.7 EIC50
Experimental: The ability of the compounds of formula (I) to block the Nav1.7 (or SCN9A) channel was measured using the assays described below.
Human Embryonic Kidney (HEK) cells were transfected with an hSCN9A construct using lipofectamine reagent (Invitrogen), using standard techniques. Cells stably expressing the hSCN9A constructs were identified by their resistance to G-418 (400 μg/ml). Clones were screened for expression using the whole-cell voltage-clamp technique.
HEK cells stably transfected with hSCN9A were maintained in DMEM medium supplemented with 10% heat-inactivated fetal bovine serum and 400 μg/ml G-418 in an incubator at 37° C. with a humidified atmosphere of 10% CO2. For HTS, cells were harvested from flasks by trypsinization and replated in an appropriate multi-well plate (typically 96 or 384 wells/plate) such that confluence would be achieved within 24 hours of plating. For electrophysiological studies, cells were removed from the culture flask by brief trypsinization and re-plated at low density onto glass cover slips. Cells were typically used for electrophysiological experiments within 24 to 72 hours after plating.
Cover slips containing HEK cells expressing hSCN9A were placed in a bath on the stage of an inverted microscope and perfused (approximately 1 ml/minutes) with extracellular solution of the following composition: 138 mM NaCl, 2 mM CaCl2, 5.4 mM KCl, 1 mM MgCl2, 10 mM glucose, and 10 mM HEPES, pH 7.4, with NaOH. […] The osmolarity of the extracellular and intracellular solutions was 300 mOsm/kg and 295 mOsm/kg, respectively. All recordings were made at room temperature (22-24° C.) using AXOPATCH 200B amplifiers and PCLAMP software (Axon Instruments, Burlingame, Calif.).
HEK cells stably transfected with hSCN9A were viewed under Hoffman contrast optics and placed in front of an array of flow pipes emitting either control or compound-containing extracellular solutions. All compounds were dissolved in dimethyl sulfoxide to make 10 mM stock solutions, which were then diluted into extracellular solution to attain the final concentrations desired. […] The voltage-dependence of inactivation was determined by applying a series of depolarizing prepulses (8 sec long in 10 mV increments) from a negative holding potential. The voltage was then immediately stepped to 0 mV to assess the magnitude of the sodium current. Currents elicited at 0 mV were plotted as a function of prepulse potential to allow estimation of the voltage at which 50% of the channels were inactivated (midpoint of inactivation or V1/2). Compounds were tested for their ability to inhibit hSCN9A sodium channels by activating the channel with a 20 msec voltage step to 0 mV following an 8 second conditioning prepulse to the empirically determined V1/2. Compound effect (% inhibition) was determined by difference in current amplitude before and after application of test compounds. For ease of comparison, “estimated IC-50” (EIC50) values were calculated from single point electrophysiology data by the following equation, (tested concentration, uM)×(100-% inhibition/% inhibition). Inhibition values <20% and >80% were excluded from the calculation.
Electrophysiological assays were conducted with PatchXpress 7000 hardware and associated software (Molecular Devices Corp). All assay buffers and solutions were identical to those used in conventional whole-cell voltage clamp experiments described above. hSCN9A cells were grown as above to 50%-80% confluency and harvested by trypsinization. Trypsinized cells were washed and resuspended in extracellular buffer at a concentration of 1×10^6 cells/ml. The onboard liquid handling facility of the PatchXpress was used for dispensing cells and application of test compounds. Determination of the voltage midpoint of inactivation was as described for conventional whole-cell recordings. Cells were then voltage-clamped to the empirically determined V1/2 and current was activated by a 20 msec voltage step to 0 mV. […]

T1 sequence (Q15858 whole entry): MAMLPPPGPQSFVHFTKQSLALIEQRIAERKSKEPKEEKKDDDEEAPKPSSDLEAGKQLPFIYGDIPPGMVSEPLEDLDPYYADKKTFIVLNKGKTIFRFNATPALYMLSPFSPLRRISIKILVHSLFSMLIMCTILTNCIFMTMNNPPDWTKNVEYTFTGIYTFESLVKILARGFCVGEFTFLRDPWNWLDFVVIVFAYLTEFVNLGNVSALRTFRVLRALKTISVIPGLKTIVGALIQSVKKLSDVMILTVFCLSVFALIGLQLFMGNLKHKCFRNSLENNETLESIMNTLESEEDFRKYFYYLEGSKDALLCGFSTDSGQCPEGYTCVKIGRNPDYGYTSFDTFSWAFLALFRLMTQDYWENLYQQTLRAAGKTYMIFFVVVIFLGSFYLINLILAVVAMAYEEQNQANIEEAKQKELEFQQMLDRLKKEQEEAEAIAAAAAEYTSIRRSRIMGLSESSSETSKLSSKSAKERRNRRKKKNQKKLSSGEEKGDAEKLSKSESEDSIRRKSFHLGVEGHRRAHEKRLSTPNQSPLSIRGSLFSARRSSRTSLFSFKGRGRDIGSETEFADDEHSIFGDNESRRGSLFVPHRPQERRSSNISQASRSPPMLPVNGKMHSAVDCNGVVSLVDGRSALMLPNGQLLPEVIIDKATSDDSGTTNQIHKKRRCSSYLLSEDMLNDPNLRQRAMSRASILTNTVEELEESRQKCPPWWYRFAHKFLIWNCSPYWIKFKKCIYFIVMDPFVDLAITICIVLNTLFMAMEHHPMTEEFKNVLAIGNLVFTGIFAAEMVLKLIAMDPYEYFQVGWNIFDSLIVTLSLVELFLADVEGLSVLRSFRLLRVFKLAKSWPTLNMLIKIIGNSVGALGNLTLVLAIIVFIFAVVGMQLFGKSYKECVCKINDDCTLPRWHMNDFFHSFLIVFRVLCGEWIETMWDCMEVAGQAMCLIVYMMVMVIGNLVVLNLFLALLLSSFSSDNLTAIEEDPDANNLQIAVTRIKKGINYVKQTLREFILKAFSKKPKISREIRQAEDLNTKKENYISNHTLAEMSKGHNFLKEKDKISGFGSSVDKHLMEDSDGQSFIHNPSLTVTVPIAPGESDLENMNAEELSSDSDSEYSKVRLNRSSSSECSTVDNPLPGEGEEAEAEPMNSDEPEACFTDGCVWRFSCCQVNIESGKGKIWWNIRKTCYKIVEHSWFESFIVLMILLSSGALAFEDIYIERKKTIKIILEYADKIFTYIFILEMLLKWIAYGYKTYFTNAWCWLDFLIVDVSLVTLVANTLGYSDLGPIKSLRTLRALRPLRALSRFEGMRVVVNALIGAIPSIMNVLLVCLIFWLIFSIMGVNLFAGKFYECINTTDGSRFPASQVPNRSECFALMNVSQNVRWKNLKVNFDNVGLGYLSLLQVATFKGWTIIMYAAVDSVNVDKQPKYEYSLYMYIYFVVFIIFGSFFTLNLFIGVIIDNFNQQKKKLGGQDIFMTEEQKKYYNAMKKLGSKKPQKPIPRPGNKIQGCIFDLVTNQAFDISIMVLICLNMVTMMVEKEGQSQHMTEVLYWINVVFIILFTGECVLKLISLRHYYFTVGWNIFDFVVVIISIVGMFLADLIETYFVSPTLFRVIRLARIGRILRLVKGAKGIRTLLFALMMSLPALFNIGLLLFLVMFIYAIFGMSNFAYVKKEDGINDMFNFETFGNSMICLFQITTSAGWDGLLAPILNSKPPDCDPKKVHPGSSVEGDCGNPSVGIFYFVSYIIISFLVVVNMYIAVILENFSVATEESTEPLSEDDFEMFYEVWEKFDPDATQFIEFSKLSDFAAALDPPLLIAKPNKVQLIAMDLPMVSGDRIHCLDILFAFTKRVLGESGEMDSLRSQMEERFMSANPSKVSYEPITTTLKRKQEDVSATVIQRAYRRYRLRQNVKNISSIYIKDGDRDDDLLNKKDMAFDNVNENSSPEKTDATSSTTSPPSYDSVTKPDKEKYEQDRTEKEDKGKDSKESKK

IC50	SMILES
660 nM	CS(=O)(=O)NC(=O)c1ccc(Oc2ccc(F)cc2)c(Cl)c1 [Example 41, 3-chloro-4-(4-fluorophenoxy)-N-(methylsulfonyl)benzamide]
5800 nM	CS(=O)(=O)NC(=O)c1ccc(Oc2ccc(Cl)c(C(F)(F)F)c2)cc1Cl [Example 43, 2-chloro-4-[4-chloro-3-(trifluoromethyl)phenoxy]-N-(methylsulfonyl)benzamide]
1100 nM	CS(=O)(=O)NC(=O)c1cc(F)c(Oc2ccc(Cl)c(C(F)(F)F)c2)c(F)c1 [Example 45, 4-(4-chloro-3-(trifluoromethyl)phenoxy)-3,5-difluoro-N-(methylsulfonyl)benzamide]
> 3000 nM	CS(=O)(=O)NC(=O)c1ccc(Oc2ccc(C(F)(F)F)cc2-c2ccnnc2)cc1 [Example 50, N-(methylsulfonyl)-4-(2-(pyridazin-4-yl)-4-(trifluoromethyl)phenoxy)benzamide]
63 nM	CS(=O)(=O)NC(=O)c1cc(Cl)c(Oc2ccc(Cl)cc2OC(F)(F)F)cc1F [Example 53, 5-chloro-4-[4-chloro-2-(trifluoromethoxy)phenoxy]-2-fluoro-N-(methylsulfonyl)benzamide]
2300 nM	COc1ccc(Cl)cc1Oc1cc(F)c(C(=O)NS(C)(=O)=O)cc1Cl [Example 54, 5-chloro-4-(5-chloro-2-methoxyphenoxy)-2-fluoro-N-(methylsulfonyl)benzamide]
430 nM	CCC(C)S(=O)(=O)NC(=O)c1cc(F)c(Oc2ccc(Cl)c(C(F)(F)F)c2)cc1F (centres unmarked) [Example 58, N-(sec-butylsulfonyl)-4-[4-chloro-3-(trifluoromethyl)phenoxy]-2,5-difluorobenzamide]
4000 nM	COc1cc(C(=O)NS(C)(=O)=O)ccc1Oc1ccc(Cl)c(C(F)(F)F)c1 [Example 59, 4-[4-chloro-3-(trifluoromethyl)phenoxy]-3-methoxy-N-(methylsulfonyl)benzamide]
> 10000 nM	COc1cc(Cl)ccc1Oc1cc(OC)c(C(=O)NS(C)(=O)=O)cc1F [Example 61, 4-(4-chloro-2-methoxyphenoxy)-5-fluoro-2-methoxy-N-(methylsulfonyl)benzamide]
890 nM	CS(=O)(=O)NC(=O)c1ccc(Oc2ccc(Cl)c(C(F)(F)F)c2)c(C#N)c1 [Example 62, 4-[4-chloro-3-(trifluoromethyl)phenoxy]-3-cyano-N-(methylsulfonyl)benzamide]
> 3000 nM	COc1cc(Cl)ccc1Oc1ccc(C(=O)NS(C)(=O)=O)c(F)c1 [Example 64, 4-(4-chloro-2-methoxyphenoxy)-2-fluoro-N-(methylsulfonyl)benzamide]
> 1000 nM	COc1cc(Cl)ccc1Oc1ccc(C(=O)NS(C)(=O)=O)cc1F [Example 65, 4-(4-chloro-2-methoxyphenoxy)-3-fluoro-N-(methylsulfonyl)benzamide]

The next lines start with the compound.

SMILES	IC50
CS(=O)(=O)NC(=O)c1ccc(Oc2ccc(Cl)c(C(F)(F)F)c2)c(F)c1 [Example 42, 4-[4-chloro-3-(trifluoromethyl)phenoxy]-3-fluoro-N-(methylsulfonyl)benzamide]	590 nM
CS(=O)(=O)NC(=O)c1ccc(Oc2ccc(Cl)c(C(F)(F)F)c2)c(Cl)c1 [Example 44, 3-chloro-4-[4-chloro-3-(trifluoromethyl)phenoxy]-N-(methylsulfonyl)benzamide]	2000 nM
COc1cc(Cl)ccc1Oc1cc(F)c(C(=O)NS(C)(=O)=O)cc1F [Example 47, 4-(4-chloro-2-methoxyphenoxy)-2,5-difluoro-N-(methylsulfonyl)benzamide]	4000 nM
CS(=O)(=O)NC(=O)c1cc(Cl)c(Oc2ccc(Cl)c(OC(F)F)c2)cc1F [Example 48, 5-chloro-4-[4-chloro-3-(difluoromethoxy)phenoxy]-2-fluoro-N-(methylsulfonyl)benzamide]	210 nM
CS(=O)(=O)NC(=O)c1cc(F)c(Oc2ccc(Cl)c(OC(F)F)c2)cc1F [Example 49, 4-[4-chloro-3-(difluoromethoxy)phenoxy]-2,5-difluoro-N-(methylsulfonyl)benzamide]	520 nM
CS(=O)(=O)NC(=O)c1cc(Cl)c(Oc2ccc(OC(F)F)c(Cl)c2)cc1F [Example 51, 5-chloro-4-[3-chloro-4-(difluoromethoxy)phenoxy]-2-fluoro-N-(methylsulfonyl)benzamide]	260 nM
COc1cc(Cl)ccc1Oc1cc(F)c(C(=O)NS(C)(=O)=O)cc1Cl [Example 52, 5-chloro-4-(4-chloro-2-methoxyphenoxy)-2-fluoro-N-(methylsulfonyl)benzamide]	470 nM
CS(=O)(=O)NC(=O)c1cc(F)c(Oc2ccc(OC(F)(F)F)c(Cl)c2)cc1F [Example 55, 4-(3-chloro-4-(trifluoromethoxy)phenoxy)-2,5-difluoro-N-(methylsulfonyl)benzamide]	340 nM
CS(=O)(=O)NC(=O)c1cc(F)c(Oc2ccc(Cl)c(OC(F)(F)F)c2)cc1F [Example 56, 4-(4-chloro-3-(trifluoromethoxy)phenoxy)-2,5-difluoro-N-(methylsulfonyl)benzamide]	200 nM
O=C(NS(=O)(=O)c1ccccc1)c1cc(F)c(Oc2ccc(Cl)c(C(F)(F)F)c2)cc1F [Example 57, 4-[4-chloro-3-(trifluoromethyl)phenoxy]-2,5-difluoro-N-(phenylsulfonyl)benzamide]	920 nM
COc1cc(Oc2ccc(Cl)c(C(F)(F)F)c2)c(F)cc1C(=O)NS(C)(=O)=O [Example 60, 4-[4-chloro-3-(trifluoromethyl)phenoxy]-5-fluoro-2-methoxy-N-(methylsulfonyl)benzamide]	33000 nM
COc1cc(Cl)ccc1Oc1ccc(C(=O)NS(C)(=O)=O)cc1C#N [Example 63, 4-(4-chloro-2-methoxyphenoxy)-3-cyano-N-(methylsulfonyl)benzamide]	> 3000 nM
COc1ccc(Cl)cc1Oc1cc(F)c(C(=O)NS(C)(=O)=O)cc1F [Example 67, 4-(5-chloro-2-methoxyphenoxy)-2,5-difluoro-N-(methylsulfonyl)benzamide]	5000 nM
COc1cc(F)ccc1Oc1cc(F)c(C(=O)NS(C)(=O)=O)cc1F [Example 69, 2,5-difluoro-4-(4-fluoro-2-methoxyphenoxy)-N-(methylsulfonyl)benzamide]	6200 nM
COc1cc(Cl)c(Cl)cc1Oc1cc(F)c(C(=O)NS(C)(=O)=O)cc1F [Example 70, 4-(4,5-dichloro-2-methoxyphenoxy)-2,5-difluoro-N-(methylsulfonyl)benzamide]	2800 nM
COc1cc(OC(F)(F)F)ccc1Oc1cc(F)c(C(=O)NS(C)(=O)=O)cc1F [Example 72, 2,5-difluoro-4-[2-methoxy-4-(trifluoromethoxy)phenoxy]-N-(methylsulfonyl)benzamide]	> 1000 nM
CS(=O)(=O)NC(=O)c1cc(F)c(Oc2ccc(Cl)cc2OC(F)(F)F)cc1F [Example 73, 4-[4-chloro-2-(trifluoromethoxy)phenoxy]-2,5-difluoro-N-(methylsulfonyl)benzamide]	710 nM
COc1cc(C(F)(F)F)ccc1Oc1cc(F)c(C(=O)NS(C)(=O)=O)cc1F [Example 74, 2,5-difluoro-4-(2-methoxy-4-(trifluoromethyl)phenoxy)-N-(methylsulfonyl)benzamide]	> 1000 nM
CS(=O)(=O)NC(=O)c1cc(F)c(Oc2ccc(Cl)c(C(F)(F)F)c2)cc1F [Example 75, 4-(4-chloro-3-(trifluoromethyl)phenoxy)-2,5-difluoro-N-(methylsulfonyl)benzamide]	450 nM
CC(C)S(=O)(=O)NC(=O)c1ccc(Oc2ccc(Cl)c(C(F)(F)F)c2)cc1 [Example 76, 4-(4-chloro-3-(trifluoromethyl)phenoxy)-N-(isopropylsulfonyl)benzamide]	850 nM
